Experimental data as given in article PMC4967369 (Xenobiotica; the fate of foreign compounds in biological …, 2015).
Like-named read-outs stand apart in the source and are kept apart here. Values belong to the molecule of their own block, whether it stands above or below them.

Columns and labels:
cat liver microsomes [1] = assay: Estradiol glucuronidation assay, cat liver microsomes; assay type: in vitro ADME; details: cat livers, 100 µM substrate
[2] = system: mongoose liver microsomes; assay: Estradiol glucuronidation assay, mongoose liver microsomes; assay type: in vitro ADME; details: mongoose livers, 100 µM substrate
ferret liver microsomes = assay: Estradiol glucuronidation assay, ferret liver microsomes; assay type: in vitro ADME; details: ferret livers, 100 µM substrate
[3] = in vivo
[4] = dog, in vivo
[5] = for Urinary concentration, Unconjugated: without enzyme treatment, normalized to creatinine
[6] = system: liver microsomes from 13 different species; assay: Isoflavone glucuronidation by liver microsomes from 13 different species; assay type: in vitro ADME, 13 species
human liver microsomes = assay: Isoflavone glucuronidation assay, human liver microsomes; assay type: in vitro ADME; details: pooled human liver microsomes (n=48)
[7] = as above; assay type: in vitro ADME; details: human, pH 7.5
dog liver microsomes = assay: Isoflavone glucuronidation assay, dog liver microsomes; assay type: in vitro ADME; details: pooled dog liver microsomes (n=16)
[8] = as above; assay type: in vitro ADME; details: mixed-breed, dog, pH 7.5
cat liver microsomes [9] = assay: Isoflavone glucuronidation assay, cat liver microsomes; assay type: in vitro ADME; details: for Vmax, 7-OH-glucuronidation: pooled cat liver microsomes (n=5); for Rank of cat liver glucuronidation rate among species: pooled liver microsomes, 35 µM substrate, 13 species compared
[10] = as above; assay type: in vitro ADME; details: domestic short-hair, cat, pH 7.5
[11] = for Urinary concentration, Unconjugated: without enzyme treatment, normalized to creatinine; for % Glucuronides: percentage of free and conjugated isoflavones that are glucuronide
[12] = pooled liver microsomes, 35 µM substrate

SMILES: CC(C(=O)c1c(O)cc(O)cc1O)c1ccc(O)cc1 (stereo not drawn) [6-hydroxy-O-desmethylangolensin]
Detection of metabolite in urine [3]: not detected
Detection of metabolite in urine [4]: not detected

SMILES: O=c1c(-c2ccc(O)cc2)coc2cc(O)ccc12 [Daidzein, daidzein]
4'-OH-glucuronidation, detection ([6]; 35 µM, pH 7.5): could not be measured in five of the 13 species
Vmax, 7-OH-glucuronidation (human liver microsomes): 1.30 ± 0.05 nmoles/min/mg protein
Km ([7]; pooled human liver microsomes): 26.6 ± 5.1 µM
Vmax, 7-OH-glucuronidation (dog liver microsomes): 8.10 ± 0.1 nmoles/min/mg protein
Km ([8]; pooled dog liver microsomes): 55.4 ± 3.8 µM
Vmax, 7-OH-glucuronidation (cat liver microsomes [9]): 1.61 ± 0.06 nmoles/min/mg protein
Rank of cat liver glucuronidation rate among species (cat liver microsomes [9]): within the lowest three out of 13 species
Km ([10]; pooled cat liver microsomes): 41.9 ± 6.6 µM

SMILES: Oc1ccc(C2=Cc3ccc(O)cc3OC2)cc1 [dehydroequol]
Detection of metabolite in urine ([11]; cat urine, before or after treatment with deconjugation enzymes): not detected
Detection of metabolite in urine ([5]; dog urine, before or after treatment with deconjugation enzymes): not detected

SMILES: Oc1ccc([C@H]2COc3cc(O)ccc3C2)cc1 [Equol, equol]
4'-OH-glucuronidation, detection [6, 12]: not detected in any of the species evaluated
7-OH-glucuronidation, detection [6, 12]: detected in all species livers’ evaluated except for glucuronidation of equol by mongoose liver
Vmax, 7-OH-glucuronidation (human liver microsomes): 17.4 ± 0.7 nmoles/min/mg protein
Km ([7]; pooled human liver microsomes): 31.8 ± 5.1 µM
Vmax, 7-OH-glucuronidation (dog liver microsomes): 14.3 ± 0.6 nmoles/min/mg protein
Km ([8]; pooled dog liver microsomes): 32.6 ± 6.9 µM
Vmax, 7-OH-glucuronidation (cat liver microsomes [9]): 20.4 ± 1.4 nmoles/min/mg protein
Rank of cat liver glucuronidation rate among species (cat liver microsomes [9]): within the lowest three out of 13 species
Km ([10]; pooled cat liver microsomes): 132 ± 26 µM
Equol to daidzein ratio ([5]; individual dog urine samples with detectable equol (three of ten)): 0.004–0.017
Urinary concentration, Unconjugated ([5]; pooled dog urine (n=10), mean): 0 pmoles / mg creatinine

SMILES: O=C1c2c(O)cc(O)cc2OCC1c1ccc(O)cc1 (stereo not drawn) [Dihydrogenistein, dihydrogenistein]
Urinary concentration, Glucuronides ([11]; pooled cat urine (n=18), after bovine liver β-glucuronidase treatment, mean): 0 pmoles / mg creatinine
% Glucuronides ([11]; pooled cat urine (n=18)): 0%
% Glucuronides ([11]; pooled cat urine (n=18), listed as dihydrogenistein): undetectable
Urinary concentration, Total ([11]; pooled cat urine (n=18), sum of free and conjugated concentrations, mean): 2998 pmoles / mg creatinine
Urinary concentration, Unconjugated ([11]; pooled cat urine (n=18), mean): 0 pmoles / mg creatinine
Urinary concentration, Glucuronides ([5]; pooled dog urine (n=10), after bovine liver β-glucuronidase treatment, mean): 631 pmoles / mg creatinine
% Glucuronides ([5]; pooled dog urine (n=10), percentage of free and conjugated isoflavones that are glucuronide): 33%
Urinary concentration, Total ([5]; pooled dog urine (n=10), sum of free and conjugated concentrations, mean): 1919 pmoles / mg creatinine
Urinary concentration, Unconjugated ([5]; pooled dog urine (n=10), mean): 0 pmoles / mg creatinine

Further lines, with some results ahead:

Rank of estradiol glucuronidation among 13 species (cat liver microsomes [1]): sixth lowest
Rank of estradiol glucuronidation among 13 species [2]: fifth
Rank of estradiol glucuronidation among 13 species (ferret liver microsomes): third lowest
SMILES: C[C@]12CC[C@@H]3c4ccc(O)cc4CC[C@H]3[C@@H]1CC[C@@H]2O [estradiol, β-estradiol]

Urinary concentration, Unconjugated ([5]; pooled dog urine (n=10), mean): 9 pmoles / mg creatinine
SMILES: COc1cc2c(=O)c(-c3ccc(O)cc3)coc2cc1O [Glycitein, glycitein]

Km [7]: 11.7 ± 2.4 µM
Km [8]: 15.3 ± 2.4 µM
Km [10]: 10.3 ± 2.5 µM
Urinary concentration, Unconjugated ([11]; pooled cat urine (n=18), mean): 29 pmoles / mg creatinine
Urinary concentration, Unconjugated ([5]; pooled dog urine (n=10), mean): 31 pmoles / mg creatinine
SMILES: O=c1c(-c2ccc(O)cc2)coc2cc(O)cc(O)c12 [Genistein, genistein]
Glucuronidation at the 5-OH position ([6]; search for additional HPLC peaks with the same mass spectrum): no evidence for glucuronidation at that site
Vmax, 7-OH-glucuronidation (human liver microsomes): 1.60 ± 0.07 nmoles/min/mg protein
Vmax, 7-OH-glucuronidation (dog liver microsomes): 5.13 ± 0.2 nmoles/min/mg protein
Vmax, 7-OH-glucuronidation (cat liver microsomes [9]): 2.15 ± 0.1 nmoles/min/mg protein
Rank of cat liver glucuronidation rate among species (cat liver microsomes [9]): within the lowest three out of 13 species

Detection of metabolite in urine [3]: not detected
Detection of metabolite in urine [4]: not detected
SMILES: CC(C(=O)c1ccc(O)cc1O)c1ccc(O)cc1 (stereo not drawn) [O-desmethylangolensin]
